This passage reports IC50 results from US9469642B2, “Purinone compounds as kinase inhibitors” (Pharmacyclics LLC, priority 2012, dated 2016).

Assay type in all cases: biochemical
The target in one test is T1, BTK (Homo sapiens, UniProt Q06187).
T1 construct: purified from insect cells as a full-length construct containing a N-terminal 6×-His tag; His6 (N); host or cells: insect cells (baculovirus Sf21)
As to the kind of experiment: Btk in vitro inhibitory activity (kinase assay by one of Methods A, B or C). The protocol: (§1) Btk kinase activity is determined using a time-resolved fluorescence resonance energy transfer (TR-FRET) methodology. Measurements are performed in a reaction volume of 50 μL using 96-well assay plates. Kinase enzyme, inhibitor, ATP (at the Km for the kinase), and 1 peptide substrate (Biotin-AVLESEEELYSSARQ-NH2) are incubated in a reaction buffer composed of 20 mM Tris, 50 mM NaCl, MgCl2 (5-25 mM depending on the kinase), MnCl2 (0-10 mM), 1 mM DTT, 0.1 mM EDTA, 0.01% bovine serum albumin, 0.005% Tween-20, and 10% DMSO at pH 7.4 for one hour. The reaction is quenched by the addition of 1.2 equivalents of EDTA (relative to divalent cation) in 25 μL of 1× Lance buffer (Perkin-Elmer). Streptavidin-APC (Perkin-Elmer) and Eu-labeled p-Tyr100 antibody (Perkin-Elmer) in 1× Lance buffer are added in a 25 μL volume to give final concentrations of 100 nM and 2.5 nM, respectively, and the mixture is allowed to incubate for one hour. The TR-FRET signal is measured on a multimode plate reader with an excitation wavelength (λEx) of 330 nm and detection wavelengths (λEm) of 615 and 665 nm. Activity is determined by the ratio of the fluorescence at 665 nm to that at 615 nm. For each compound, enzyme activity is measured at various concentrations of compound. Negative control reactions are performed in the absence of inhibitor in replicates of six, and two no-enzyme controls are used to determine baseline fluorescence levels. Inhibition constants, Ki(app), were obtained using the program BatchKi (Kuzmic et al. (2000), Anal. Biochem. 286:45-50). IC50s are obtained according to the equation: IC50=[…]+[E]total/2;
(§2) For all kinases, [ATP]=Km^ATP, [Btk]total=0.5 nM and [Lck]total=6 nM.
(§3) Kinase activity is measured in vitro using electrophoretic mobility shift assay. The kinase reactions are assembled in a total volume of 25 μL in 384 well plates. The reactions comprise: BTK enzyme (1 nM, N-terminal His6-tagged, recombinant, full-length, human BTK purified from baculovirus Sf21 insect cell system), inhibitor, ATP (16 μM, the apparent Km for the kinase), fluorescently labeled peptide substrate (1 μM, FAM-GEEPLYWSFPAKKK-NH2) in a reaction buffer composed of 100 mM HEPES, pH7.5, 5 mM MgCl2 1 mM DTT, 0.1% bovine serum albumin, 0.01% Triton X-100, and 1% DMSO. The reaction is incubated for one hour and is quenched by the addition of 45 μL of termination buffer (100 mM HEPES, pH7.5, 0.01% Triton X-100, 30 mM EDTA). The terminated reactions are analyzed using 12 channel LabChip® 3000 microfluidic detection instrument (Caliper Life Sciences). The enzymatic phosphorylation of the peptide results in a change in net charge, enabling electrophoretic separation of product from substrate peptide. As substrate and product peptides are separated, two peaks of fluorescence are observed. Change in the relative fluorescence intensity of the substrate and product peaks is the parameter measured, reflecting enzyme activity. In the presence of an inhibitor, the ratio between product and substrate is altered:the signal of the product decreases, while the signal of the substrate increases.
(§4) Activity in each sample is determined as the product to sum ratio (PSR):P/(S+P), where P is the peak height of the product peptide and S is the peak height of the substrate peptide. For each compound, enzyme activity is measured at various concentrations (12 concentrations of compound spaced by 3× dilution intervals). Negative control samples (0%-inhibition in the absence of inhibitor) and positive control samples (100%-inhibition, in the presence of 20 mM EDTA) are assembled in replicates of four and are used to calculate %-inhibition values for each inhibitor at each concentration. Percent inhibition (Pinh) is determined using following equation: […]

For another test, the target named is EGFR (Homo sapiens, UniProt P00533). As to the kind of experiment: Kinase panel inhibition, EGFR (one of the methods of Example 76a, 76b, 76c). The protocol: as §1, §2, §3, §4
Chain of EGFR (P00533 25-1210, species assumed): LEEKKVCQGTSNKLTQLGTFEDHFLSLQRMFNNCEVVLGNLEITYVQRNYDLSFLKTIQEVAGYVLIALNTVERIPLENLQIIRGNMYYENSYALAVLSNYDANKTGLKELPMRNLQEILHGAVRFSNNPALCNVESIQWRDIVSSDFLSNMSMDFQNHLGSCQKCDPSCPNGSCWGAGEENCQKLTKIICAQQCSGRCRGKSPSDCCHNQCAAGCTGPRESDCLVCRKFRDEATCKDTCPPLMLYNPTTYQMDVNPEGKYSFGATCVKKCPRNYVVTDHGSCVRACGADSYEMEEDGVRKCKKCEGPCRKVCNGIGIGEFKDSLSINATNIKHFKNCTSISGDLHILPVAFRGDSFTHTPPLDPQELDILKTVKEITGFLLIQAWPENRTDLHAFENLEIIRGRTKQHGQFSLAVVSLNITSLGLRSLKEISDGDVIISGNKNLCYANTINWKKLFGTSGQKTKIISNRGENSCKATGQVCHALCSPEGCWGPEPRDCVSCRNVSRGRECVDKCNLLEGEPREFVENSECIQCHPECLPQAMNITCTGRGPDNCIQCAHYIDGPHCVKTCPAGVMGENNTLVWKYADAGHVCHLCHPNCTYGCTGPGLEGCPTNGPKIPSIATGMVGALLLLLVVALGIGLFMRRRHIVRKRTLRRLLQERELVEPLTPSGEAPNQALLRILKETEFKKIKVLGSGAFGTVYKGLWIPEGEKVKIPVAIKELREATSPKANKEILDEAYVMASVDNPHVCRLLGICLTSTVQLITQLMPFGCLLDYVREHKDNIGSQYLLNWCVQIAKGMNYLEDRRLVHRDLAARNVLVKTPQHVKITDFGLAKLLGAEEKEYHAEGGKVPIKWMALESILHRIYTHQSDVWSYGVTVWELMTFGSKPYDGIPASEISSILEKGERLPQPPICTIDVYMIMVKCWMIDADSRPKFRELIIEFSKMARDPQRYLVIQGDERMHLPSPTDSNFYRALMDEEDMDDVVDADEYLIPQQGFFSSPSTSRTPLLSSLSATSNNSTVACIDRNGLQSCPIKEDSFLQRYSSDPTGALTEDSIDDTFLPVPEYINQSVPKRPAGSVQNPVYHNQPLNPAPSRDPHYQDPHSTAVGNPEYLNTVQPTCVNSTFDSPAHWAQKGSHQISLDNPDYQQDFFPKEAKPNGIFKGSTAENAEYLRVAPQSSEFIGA
For the next test, the target named is LCK (Homo sapiens, UniProt P06239). As to the kind of experiment: Kinase panel inhibition, LCK (one of the methods of Example 76a, 76b, 76c). The protocol: as §1, §2, §3, §4
Chain of LCK (P06239 whole entry, species assumed): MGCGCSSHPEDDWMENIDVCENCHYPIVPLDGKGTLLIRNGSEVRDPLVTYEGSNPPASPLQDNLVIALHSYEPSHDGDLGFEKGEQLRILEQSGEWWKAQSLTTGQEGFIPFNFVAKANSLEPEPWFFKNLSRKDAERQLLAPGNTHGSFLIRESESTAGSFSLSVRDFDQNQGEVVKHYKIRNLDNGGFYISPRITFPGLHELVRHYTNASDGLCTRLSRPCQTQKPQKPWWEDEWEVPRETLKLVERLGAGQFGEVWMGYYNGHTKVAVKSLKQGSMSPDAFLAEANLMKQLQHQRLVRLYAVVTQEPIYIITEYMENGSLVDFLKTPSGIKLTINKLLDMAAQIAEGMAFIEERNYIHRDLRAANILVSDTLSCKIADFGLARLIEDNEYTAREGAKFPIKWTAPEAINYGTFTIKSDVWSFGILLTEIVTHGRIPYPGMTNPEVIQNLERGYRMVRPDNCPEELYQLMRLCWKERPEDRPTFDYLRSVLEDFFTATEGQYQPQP

T1 sequence (Q06187 whole entry): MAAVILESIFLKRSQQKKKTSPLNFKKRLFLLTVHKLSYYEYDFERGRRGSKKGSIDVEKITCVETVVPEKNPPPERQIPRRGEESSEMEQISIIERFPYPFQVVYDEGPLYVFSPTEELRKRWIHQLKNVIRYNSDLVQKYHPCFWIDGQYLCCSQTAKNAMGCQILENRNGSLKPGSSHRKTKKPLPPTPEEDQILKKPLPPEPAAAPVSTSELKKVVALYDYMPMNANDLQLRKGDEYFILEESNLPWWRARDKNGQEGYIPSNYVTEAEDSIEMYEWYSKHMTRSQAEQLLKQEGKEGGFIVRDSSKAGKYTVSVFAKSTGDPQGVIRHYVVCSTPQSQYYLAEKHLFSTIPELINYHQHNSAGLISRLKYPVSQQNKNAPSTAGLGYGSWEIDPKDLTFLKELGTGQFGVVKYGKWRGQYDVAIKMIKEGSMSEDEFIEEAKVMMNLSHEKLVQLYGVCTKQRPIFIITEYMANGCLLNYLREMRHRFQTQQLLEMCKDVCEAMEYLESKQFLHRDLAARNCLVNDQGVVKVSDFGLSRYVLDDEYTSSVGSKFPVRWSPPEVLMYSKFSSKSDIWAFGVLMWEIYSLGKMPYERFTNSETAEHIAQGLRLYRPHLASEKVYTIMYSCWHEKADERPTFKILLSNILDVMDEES

As for `COc1cc(-n2c(=O)n([C@@H]3CCN(C(=O)/C=C/CN(C)C)C3)c3ncnc(N)c32)ccc1C` [Compound 81, (R,E)-6-amino-9-(1-(4-(dimethylamino)but-2-enoyl)pyrrolidin-3-yl)-7-(3-methoxy-4-methylphenyl)-7H-purin-8(9H)-one], the IC50 (commonly the midpoint of a concentration-inhibition curve) was < 0.1 µM at BTK, > 10 µM on EGFR and 1 to 10 µM against LCK.

With `Cc1cc(N(C)C(=O)/C=C/CN(C)C2CC2)cc(-n2c(=O)n(-c3ccc(Oc4ccccc4)cc3)c3c(N)ncnc32)c1` [Compound 211, (E)-N-(3-(6-amino-8-oxo-7-(4-phenoxyphenyl)-7H-purin-9(8H)-yl)-5-methylphenyl)-4-(cyclopropyl(methyl)amino)-N-methylbut-2-enamide], the figures for the IC50 at BTK, against EGFR and at LCK were < 0.1 µM, 0.1 to 1 µM and 1 to 10 µM, respectively.

On to `COCCN(C)C/C=C/C(=O)N(C)c1cccc(-n2c(=O)n(-c3ccc(Oc4ccccc4)cc3)c3c(N)ncnc32)c1` [Compound 134, (E)-N-(3-(6-amino-8-oxo-7-(4-phenoxyphenyl)-7H-purin-9(8H)-yl)phenyl)-4-((2-methoxyethyl)(methyl)amino)-N-methylbut-2-enamide], for which the figures for the IC50 at BTK, against EGFR and against LCK were < 0.1 µM, 0.1 to 1 µM and 1 to 10 µM, respectively.

As to `CN(C)C/C=C/C(=O)Nc1cccc(-n2c(=O)n(-c3ccc(Cl)cc3)c3c(N)ncnc32)c1` [Compound 14, (E)-N-(3-(6-amino-7-(4-chlorophenyl)-8-oxo-7H-purin-9(8H)-yl)phenyl)-4-(dimethylamino)but-2-enamide], the IC50 against BTK is < 0.1 µM; on EGFR, 1 to 10 µM; against LCK, 1 to 10 µM.

Consider `CN(C(=O)/C=C/CN(C)[C@H]1CCOC1)c1cccc(-n2c(=O)n(-c3ccc(Oc4ccccc4)cc3)c3c(N)ncnc32)c1` [Compound 123, (S,E)-N-(3-(6-amino-8-oxo-7-(4-phenoxyphenyl)-7H-purin-9(8H)-yl)phenyl)-N-methyl-4-(methyl(tetrahydrofuran-3-yl)amino)but-2-enamide], for which the results for the IC50 against BTK, at EGFR and against LCK were < 0.1 µM, 1 to 10 µM and 1 to 10 µM, respectively.

Turning to `CN(C/C=C/C(=O)Nc1cccc(-n2c(=O)n(-c3ccc(Oc4cccc(F)c4)cc3)c3c(N)ncnc32)c1)[C@H]1CCOC1` [Compound 316, (S,E)-N-(3-(6-amino-7-(4-(3-fluorophenoxy)phenyl)-8-oxo-7H-purin-9(8H)-yl)phenyl)-4-(methyl(tetrahydrofuran-3-yl)amino)but-2-enamide], the IC50 is < 0.1 µM against BTK, 0.1 to 1 µM against EGFR and 1 to 10 µM against LCK.

For the molecule `CN(C(=O)/C(C#N)=C/C1CC1)c1cccc(-n2c(=O)n(-c3ccc(Oc4ccccc4)cc3)c3c(N)ncnc32)c1` [Compound 325, (E)-N-(3-(6-amino-8-oxo-7-(4-phenoxyphenyl)-7H-purin-9(8H)-yl)phenyl)-2-cyano-3-cyclopropyl-N-methylacrylamide], the IC50 against BTK is < 0.1 µM; against EGFR, 0.1 to 1 µM; at LCK, 0.1 to 1 µM.

On to `COc1cc(-n2c(=O)n(-c3cccc(NC(=O)/C=C/CN(C)C)c3)c3ncnc(N)c32)ccc1C` [Compound 17, (E)-N-(3-(6-amino-7-(3-methoxy-4-methylphenyl)-8-oxo-7H-purin-9(8H)-yl)phenyl)-4-(dimethylamino)but-2-enamide], for which the results for the IC50 at BTK, at EGFR and at LCK were < 0.1 µM, 1 to 10 µM and 1 to 10 µM, respectively.

For the molecule `Cc1ccc(N(C)C(=O)/C=C/CN(C)C2CC2)cc1-n1c(=O)n(-c2ccc(Oc3ccccc3)cc2)c2c(N)ncnc21` [Compound 191, (E)-N-(3-(6-amino-8-oxo-7-(4-phenoxyphenyl)-7H-purin-9(8H)-yl)-4-methylphenyl)-4-(cyclopropyl(methyl)amino)-N-methylbut-2-enamide], the IC50 was 0.1 to 1 µM against BTK, > 10 µM at EGFR and > 10 µM against LCK.

For `CN(C)C/C=C/C(=O)N(C)[C@H]1CC[C@@H](n2c(=O)n(-c3ccc(Oc4ccccc4)cc3)c3c(N)ncnc32)CC1` [Compound 328, (E)-N-((1s,4s)-4-(6-amino-8-oxo-7-(4-phenoxyphenyl)-7H-purin-9(8H)-yl)cyclohexyl)-4-(dimethylamino)-N-methylbut-2-enamide], the IC50 on BTK, on EGFR and against LCK was < 0.1 µM each time.

Turning to `CN(C(=O)/C=C/CN(C)[C@@H]1CCOC1)c1cccc(-n2c(=O)n(-c3ccc(Oc4ccccc4)cc3)c3c(N)ncnc32)c1` [Compound 129, (R,E)-N-(3-(6-amino-8-oxo-7-(4-phenoxyphenyl)-7H-purin-9(8H)-yl)phenyl)-N-methyl-4-(methyl(tetrahydrofuran-3-yl)amino)but-2-enamide], the values for the IC50 at BTK, at EGFR and against LCK were < 0.1 µM, 1 to 10 µM and 1 to 10 µM, respectively.

With `COc1cc(NC(=O)/C=C/CN(C)C2CC2)cc(-n2c(=O)n(-c3ccc(Oc4ccccc4)cc3C)c3c(N)ncnc32)c1` [Compound 301, (E)-N-(3-(6-amino-7-(2-methyl-4-phenoxyphenyl)-8-oxo-7H-purin-9(8H)-yl)-5-methoxyphenyl)-4-(cyclopropyl(methyl)amino)but-2-enamide], the half-maximal inhibitory concentration (IC50) against BTK is < 0.1 µM; at EGFR it was 0.1 to 1 µM; on LCK, 1 to 10 µM.

For `CN(C)C/C=C/C(=O)N(C)c1cccc(-n2c(=O)n(-c3ccc(Cl)cc3)c3c(N)ncnc32)c1` [Compound 27, (E)-N-(3-(6-amino-7-(4-chlorophenyl)-8-oxo-7H-purin-9(8H)-yl)phenyl)-4-(dimethylamino)-N-methylbut-2-enamide], the IC50 against BTK was < 0.1 µM; against EGFR it was > 10 µM; against LCK, > 10 µM.

Regarding `CN(C(=O)/C=C/CN(C)C1CC1)c1cccc(-n2c(=O)n(-c3ccc(Oc4ccccc4)cc3)c3c(N)ncnc32)c1` [Compound 34, (E)-N-(3-(6-amino-8-oxo-7-(4-phenoxyphenyl)-7H-purin-9(8H)-yl)phenyl)-4-(cyclopropyl(methyl)amino)-N-methylbut-2-enamide], the IC50 was < 0.1 µM against BTK, 0.1 to 1 µM on EGFR and 1 to 10 µM on LCK.

Turning to `N#C/C(=C\C1CC1)C(=O)N1CCC[C@@H](n2c(=O)n(-c3ccc(Oc4ccccc4)cc3)c3c(N)ncnc32)C1` [Compound 324, (R,E)-2-(3-(6-amino-8-oxo-7-(4-phenoxyphenyl)-7H-purin-9(8H)-yl)piperidine-1-carbonyl)-3-cyclopropylacrylonitrile], the IC50 was < 0.1 µM on BTK, 0.1 to 1 µM at EGFR and 0.1 to 1 µM against LCK.

On to `COc1ccc(-n2c(=O)n(-c3ccc(Oc4ccccc4)cc3)c3c(N)ncnc32)cc1N(C)C(=O)/C=C/CN(C)C1CC1` [Compound 171, (E)-N-(5-(6-amino-8-oxo-7-(4-phenoxyphenyl)-7H-purin-9(8H)-yl)-2-methoxyphenyl)-4-(cyclopropyl(methyl)amino)-N-methylbut-2-enamide], for which the IC50 is < 0.1 µM on BTK, 1 to 10 µM at EGFR and 1 to 10 µM against LCK.

As for `CN(C)C/C=C/C(=O)Nc1cccc(-n2c(=O)n(-c3ccc(Oc4ccccc4)cc3)c3c(N)ncnc32)c1` [Compound 8, (E)-N-(3-(6-amino-8-oxo-7-(4-phenoxyphenyl)-7H-purin-9(8H)-yl)phenyl)-4-(dimethylamino)but-2-enamide], the values for the IC50 on BTK, against EGFR and against LCK were < 0.1 µM, < 0.1 µM and 0.1 to 1 µM, respectively.
